Key:
[1] = system: E. coli and two Streptococcus Spp.; details: disk tests
[2] = Lysozyme activity of fractions; format: biochemical
Procedure: For this Exarnple, egg white was collected from 2,000 eggs (about 50 L) and diluted in ice-cold distilled water, up to 150 L. All manipulations were done at 4° C. The solution was filtered and introduced into a 4 L apparatus according to the present invention, and having three working outflow ports (plus two electrode outflows). The contifocuser was initially filled with distilled water. The flow rate was adjusted at 75 ml/min, a DC 1,000 Volts was established, and the initial power of the system was 1.5 W. After adding the crude egg white suspension, the power raised to 10.5 W. The contifocusing lasted 34 hrs. […] This suspension was gradually introduced into a 1 L contifocuser with three working and two electrode outflow ports. The flow rate with distilled water was adjusted at 10 ml/min, 1,000 V/DC. […] The contifocusing lasted 3 days. The outflow nearest to the cathode, at pH 10.5, was collected. […] This fraction of 12 L was thereafter introduced in four fractions onto 200×1500 mm chromatographic columns packed by a molecular sieving gel, Spheron P-200, and 25 ml fractions were collected.

Compound	inhibition [1]	protein-splitting activity ([2]; first peak after Spheron P-200 gel chromatography)	lysozyme concentration (activity) ([2]; outflow at pH 10.5 after first contifocusing run)
CN(C)[C@@H]1C(=O)C(C(N)=O)=C(O)[C@@]2(O)C(=O)C3=C(O)c4c(O)cccc4[C@@](C)(O)[C@H]3C[C@@H]12 [original material, Tetracyclin]	85%	–	–
lysozyme: enzyme isolated from egg white by contifocusing	–	20,000 U/g	200 U/ml

Source: US6572751B1, “Method and apparatus for continuous flow isoelectric focusing for purifying biological substances” (priority 1997, dated 2003)
